Laboratory results from US9221781B2, “Synthesis of polyhydroxy chromenone compounds and their anti-tumor effects” (BEIJING SHENOGEN PHARMA GROUP LTD., priority 2012, dated 2015).
pIC50: −log10 of the molar value.

Assays:
Molt-4 cells = experiment: Inhibition of growth of acute lymphoblastic leukemia Molt-4 cells by MTT method; format: cell-based; details: Homo sapiens, 10^−6M, 72 hours, read-out: The inhibition percentage of cell proliferation by the compounds with a concentration of 10^−6M, Molt-4 cells
Procedure: B: Inhibition of Growth of Acute Lymphoblastic Leukemia Molt-4 Cells by the Compounds Detected by MTT Method
The acute lymphoblastic leukemia Molt-4 cells from ATCC were maintained in RPMI-1640 and 10% fetal calf serum at 37° C. in a 5% CO2 atmosphere. The cells were subseeded in a 96-well culture plate at a concentration of 6×10^3 cells/well and maintained RPMI-1640 and 10% fetal calf serum at 37° C. 5%CO2 atmosphere. Molt-4 cells were treated with a test compound dissolved in DMSO at the concentration of 0, 10^−4M, 10^−5M, 10^−6M, 10^−7M, 10^−8M for 72 hours. OD value was tested by MTT method, and the inhibition ratio was calculated.

lung cancer H460 cells = experiment: Inhibition of lung cancer cells H460 in vitro by MTT method; format: cell-based; details: Homo sapiens, NCI-H460, 72 hours, FIG. 5, read-out: IC50, in vitro inhibition on cell line H460 of lung cancer
Procedure: A: Inhibition of Lung Cancer Cells H460 In Vitro by the Compounds by MTT Method
(§1) The lung cancer H460 cells were subseeded in a 96-well culture plate at a concentration of 4.0×10^3 cells/well and maintained in phenol red free medium containing 2.5% CS-FBS at 37° C. in a 5% CO2 atmosphere. H460 cells were treated with a test compound dissolved in DMSO at the concentration of 0, 1, 2, 4, 8, 10 and 20 μM for 72 hours. OD value was tested by MTT method, and the inhibition percentage was calculated.

BEL-7402 cells = experiment: Inhibition of liver cancer cell BEL-7402 in vitro by SRB; format: cell-based; details: Homo sapiens, 10^−6M, 72 hours, read-out: The inhibition percentage of cell proliferation by the compounds with a concentration of 10^−6M, BEL-7402 cells
Procedure: A: Inhibition of Liver Cancer Cell BEL-7402 In Vitro by the Compounds Detected by SRB
The liver cancer BEL-7402 cells from ATCC were maintained in DMDM, 10% NCS and 50 μg/ml KANA at 37° C. in a 5% CO2 atmosphere, and were subseeded in a 96-well culture plate at a concentration of 6×10^3 cells/well. BEL-7402 cells were treated with a test compound dissolved in DMSO at the concentration of 0, 10^−4M, 10^−5M, 10^−6M, 10^−7M, 10^−8M for 72 hours. OD value was tested by SRB method, and the inhibition percentage was calculated.

MCF7 cells = experiment: CellTiter-Glo Luminescent Cell Viability Assay on ER-positive breast cancer MCF-7 cells in vitro; format: cell-based; details: Homo sapiens, 72 hours, read-out: Inhibition of viability of breast cancer cells IC50, MCF7 cells
Procedure: B: CellTiter-Glo® Luminescent Cell Viability Assay on ER-Positive Breast Cancer MCF-7 Cells In Vitro:
MCF7 cells from ATCC were maintained in an Dulbecco's modified Eagle medium (DMEM), and 10% fetal calf serum at 37 in a 5% CO2 atmosphere. Cells were placed at a density of 6×10^3 cells per well in a 96-well plate. MCF 7 cells were treated with a test compound dissolved in DMSO at the concentration of 0, 0.3 μM, 0.5 μM, 1 μM, 2 μM, 3 μM, 5 μM, 10 μM, 20 μM, 30 μM, 50 μM and 100 μM for 72 hours. Treated cells were examined through CellTiter-Glo® Luminescent Cell Viability Assay Kit (Promega), and luminescence were recorded with Envision.

K562 cells = experiment: Viability of chronic leukemia cells K562 by CellTiter-Glo Luminescent Assay in vitro; format: cell-based, human; details: Homo sapiens, 72 hours, read-out: Inhibition of viability of cells in vitro IC50, K562 cells
Procedure: A: Detection of Viability of Chronic Leukemia Cells K562 by CellTiter-Glo® Luminescent Assay In Vitro
The chronic leukemia cells K562 from ATCC were maintained in IMDM and 10% fetal calf serum at 37° C. in a 5% CO2 atmosphere. The cells were subseeded in a 96-well culture plate at a cencentration of 6×10^3 cells/well.K562 cells were treated with a test compound dissolved in DMSO at the concentration of 0, 0.3 μM, 0.5 μM, 1 μM, 2 μM, 3 μM, 5 μM, 10 μM, 20 μM, 30 μM, 50 μM and 100 μM for 72 hours. Treated cells were examined by CellTiter-Glo® Luminescent Cell Viability Assay Kit (Promega), and luminescence were recorded with Envision.

[1] = test system: colon cancer LS174T cells; experiment: Inhibition of colon cancer cells LS174T in vitro by MTT method; format: cell-based; details: Homo sapiens, 72 hours, FIG. 6, read-out: IC50, in vitro inhibition on cell line LS174T of colon carcinoma
Procedure: A: Inhibition of Colon Cancer Cells LS174T In Vitro by the Compounds by MTT Method
as §1, with “colon” for “lung”, “LS174T” for “H460”, “4.5×10^3” for “4.0×10^3”, “free 1640” for “free”

[2] = test system: gastric cancer BGC-823 cells; experiment: Inhibition of gastric cancer cell BGC-823 in vitro by MTT method; format: cell-based; details: Homo sapiens; BGC-823, MTT, 72 hours, FIG. 4; read-out: IC50, in vitro inhibition on cell line BGC-823 of gastric cancer
Procedure: A: Inhibition of Gastric Cancer Cell BGC-823 In Vitro by the Compounds by MTT Method
as §1, with “gastric” for “lung”, “BGC-823” for “H460”, “3×10^3” for “4.0×10^3”, “free DMEM” for “free”

pIC50 (lung cancer H460 cells): 5.40 to 6.00
pIC50 (MCF7 cells): 5.70
pIC50 (K562 cells): 5.99
pIC50 [1]: 5.40 to 6.00
pIC50 [2]: 5.40 to 6.00
Structure (SMILES): CC(C)=CCc1c(O)cc(O)c2c(=O)c(O)c(-c3ccc(C(F)(F)F)cc3)oc12 [Compound 1, 2-(4-trifluoromethylphenyl)-3,5,7-trihydroxy-8-(3-methyl-2-buten-1-yl)-4H-chromen-4-one]
inhibition at 1 µM (Molt-4 cells): 43.7%
inhibition at 1 µM (BEL-7402 cells): 23.7%
